Laboratory results taken from ChEMBL document CHEMBL3885861, “Open TG-GATES”.

Species: Rattus norvegicus
Assay: Open TG-GATES - Regimen: Daily Repeat
Format: toxicity, organism-based, Sprague-Dawley
Parameters: regimen Daily Repeat, gender Male, age 6 weeks
Settings: in vivo, po, 100 mg/kg, route gavage, dose level Low; for APTT / Bas / Eos / Fbg / Hb / Ht / Lym / MCH / MCHC / MCV / Mono / Neu / PT / Plat / RBC / Ret / WBC: tissue Blood; for KIDNEY_L / KIDNEY_R / KIDNEY_TOTAL: tissue Kidney; for LIVER: tissue Liver; for A/G / ALP / ALT / AST / BUN / CRE / Ca / Cl / DBIL / GLC / IP / K / LDH / Na / PL / RALB / TBIL / TC / TG / TP / gamma-GTP: tissue Plasma

CC(C)(S)[C@@H](N)C(=O)O [PENICILLAMINE]
TERMINAL_BW (72 h, time 3 day): 236.4 g | APTT (72 h, time 3 day): 16.9 s | Bas (72 h, time 3 day): 0% | Eos (72 h, time 3 day): 1% | Fbg (72 h, time 3 day): 294.8 mg/dL | Hb (72 h, time 3 day): 13.7 g/dL | Ht (72 h, time 3 day): 41.6% | Lym (72 h, time 3 day): 78.8% | MCH (72 h, time 3 day): 20.9 pg | MCHC (72 h, time 3 day): 33% | MCV (72 h, time 3 day): 63.3 fL | Mono (72 h, time 3 day): 2.8% | Neu (72 h, time 3 day): 16.6% | PT (72 h, time 3 day): 14.1 s | Plat (72 h, time 3 day): 122 x10_4/uL | RBC (72 h, time 3 day): 658.2 x10_4/ul | Ret (72 h, time 3 day): 7.4% | WBC (72 h, time 3 day): 84.7 x10_2/uL | KIDNEY_L (72 h, time 3 day): 1 g | KIDNEY_R (72 h, time 3 day): 1 g | KIDNEY_TOTAL (72 h, time 3 day): 1.9 g | LIVER (72 h, time 3 day): 10.8 g | A/G (72 h, time 3 day): 0.9 | ALP (72 h, time 3 day): 1491 IU/L | ALT (72 h, time 3 day): 40.2 IU/L | AST (72 h, time 3 day): 69.8 IU/L | BUN (72 h, time 3 day): 13 mg/dL | CRE (72 h, time 3 day): 0.2 mg/dL | Ca (72 h, time 3 day): 10.8 mg/dL | Cl (72 h, time 3 day): 106.6 meq/L | DBIL (72 h, time 3 day): 0.014 mg/dL | GLC (72 h, time 3 day): 183.8 mg/dL | IP (72 h, time 3 day): 7 mg/dL | K (72 h, time 3 day): 4.1 meq/L | LDH (72 h, time 3 day): 85 IU/L | Na (72 h, time 3 day): 143.8 meq/L | PL (72 h, time 3 day): 156 mg/dL | RALB (72 h, time 3 day): 2.7 g/dL | TBIL (72 h, time 3 day): 0.028 mg/dL | TC (72 h, time 3 day): 80.8 mg/dL | TG (72 h, time 3 day): 114.8 mg/dL | TP (72 h, time 3 day): 5.7 g/dL | gamma-GTP (72 h, time 3 day): 1.2 IU/L | TERMINAL_BW ([…], time 7 day): 276.9 g | TERMINAL_BW ([…], time 14 day): 325.3 g | TERMINAL_BW ([…], time 28 day): 410.3 g | APTT ([…], time 7 day): 17.9 s | Bas ([…], time 7 day): 0.2% | Eos ([…], time 7 day): 1% | Fbg ([…], time 7 day): 305.6 mg/dL | Hb ([…], time 7 day): 13.9 g/dL | Ht ([…], time 7 day): 42.4% | Lym ([…], time 7 day): 80.6% | MCH ([…], time 7 day): 20.7 pg | MCHC ([…], time 7 day): 32.9% | MCV ([…], time 7 day): 63 fL | Mono ([…], time 7 day): 2.4% | Neu ([…], time 7 day): 14.6% | PT ([…], time 7 day): 14.2 s | Plat ([…], time 7 day): 127.2 x10_4/uL | RBC ([…], time 7 day): 674.2 x10_4/ul | Ret ([…], time 7 day): 5.7% | WBC ([…], time 7 day): 102.7 x10_2/uL | APTT ([…], time 14 day): 17.2 s | Bas ([…], time 14 day): 0% | Eos ([…], time 14 day): 1% | Fbg ([…], time 14 day): 300.8 mg/dL | Hb ([…], time 14 day): 14.8 g/dL | Ht ([…], time 14 day): 43.6% | Lym ([…], time 14 day): 82.4% | MCH ([…], time 14 day): 20.7 pg | MCHC ([…], time 14 day): 34% | MCV ([…], time 14 day): 60.9 fL | Mono ([…], time 14 day): 1.8% | Neu ([…], time 14 day): 14% | PT ([…], time 14 day): 13.8 s | Plat ([…], time 14 day): 111.4 x10_4/uL | RBC ([…], time 14 day): 716 x10_4/ul | Ret ([…], time 14 day): 3.9% | WBC ([…], time 14 day): 83.6 x10_2/uL | APTT ([…], time 28 day): 18.8 s | Bas ([…], time 28 day): 0% | Eos ([…], time 28 day): 1.6% | Fbg ([…], time 28 day): 313 mg/dL | Hb ([…], time 28 day): 16.2 g/dL | Ht ([…], time 28 day): 46.8% | Lym ([…], time 28 day): 82.8% | MCH ([…], time 28 day): 20 pg | MCHC ([…], time 28 day): 34.6% | MCV ([…], time 28 day): 57.7 fL | Mono ([…], time 28 day): 1.8% | Neu ([…], time 28 day): 13% | PT ([…], time 28 day): 14.1 s | Plat ([…], time 28 day): 101.2 x10_4/uL | RBC ([…], time 28 day): 812.4 x10_4/ul | Ret ([…], time 28 day): 2.2% | WBC ([…], time 28 day): 93.4 x10_2/uL | KIDNEY_L ([…], time 7 day): 1.1 g | KIDNEY_R ([…], time 7 day): 1.1 g | KIDNEY_TOTAL ([…], time 7 day): 2.3 g | KIDNEY_L ([…], time 14 day): 1.3 g | KIDNEY_R ([…], time 14 day): 1.3 g | KIDNEY_TOTAL ([…], time 14 day): 2.6 g | KIDNEY_L ([…], time 28 day): 1.4 g | KIDNEY_R ([…], time 28 day): 1.4 g | KIDNEY_TOTAL ([…], time 28 day): 2.8 g | LIVER ([…], time 7 day): 12.9 g | LIVER ([…], time 14 day): 14.2 g | LIVER ([…], time 28 day): 15.7 g | A/G ([…], time 7 day): 0.9 | ALP ([…], time 7 day): 1699 IU/L | ALT ([…], time 7 day): 43.4 IU/L | AST ([…], time 7 day): 66.2 IU/L | BUN ([…], time 7 day): 17 mg/dL | CRE ([…], time 7 day): 0.2 mg/dL | Ca ([…], time 7 day): 10.9 mg/dL | Cl ([…], time 7 day): 104.2 meq/L | DBIL ([…], time 7 day): 0.01 mg/dL | GLC ([…], time 7 day): 184 mg/dL | IP ([…], time 7 day): 7.5 mg/dL | K ([…], time 7 day): 3.9 meq/L | LDH ([…], time 7 day): 80.6 IU/L | Na ([…], time 7 day): 142.2 meq/L | PL ([…], time 7 day): 167.8 mg/dL | RALB ([…], time 7 day): 2.7 g/dL | TBIL ([…], time 7 day): 0.028 mg/dL | TC ([…], time 7 day): 85.2 mg/dL | TG ([…], time 7 day): 116.8 mg/dL | TP ([…], time 7 day): 5.8 g/dL | gamma-GTP ([…], time 7 day): 1.2 IU/L | A/G ([…], time 14 day): 0.9 | ALP ([…], time 14 day): 1443.4 IU/L | ALT ([…], time 14 day): 42.8 IU/L | AST ([…], time 14 day): 61.6 IU/L | BUN ([…], time 14 day): 15 mg/dL | CRE ([…], time 14 day): 0.2 mg/dL | Ca ([…], time 14 day): 10.9 mg/dL | Cl ([…], time 14 day): 104.2 meq/L | DBIL ([…], time 14 day): 0.012 mg/dL | GLC ([…], time 14 day): 194.4 mg/dL | IP ([…], time 14 day): 6.7 mg/dL | K ([…], time 14 day): 3.9 meq/L | LDH ([…], time 14 day): 89 IU/L | Na ([…], time 14 day): 142.4 meq/L | PL ([…], time 14 day): 178.2 mg/dL | RALB ([…], time 14 day): 2.8 g/dL | TBIL ([…], time 14 day): 0.028 mg/dL | TC ([…], time 14 day): 85 mg/dL | TG ([…], time 14 day): 171.6 mg/dL | TP ([…], time 14 day): 6 g/dL | gamma-GTP ([…], time 14 day): 1 IU/L | A/G ([…], time 28 day): 0.9 | ALP ([…], time 28 day): 1085 IU/L | ALT ([…], time 28 day): 35 IU/L | AST ([…], time 28 day): 57.2 IU/L | BUN ([…], time 28 day): 16.6 mg/dL | CRE ([…], time 28 day): 0.3 mg/dL | Ca ([…], time 28 day): 10.9 mg/dL | Cl ([…], time 28 day): 105.8 meq/L | DBIL ([…], time 28 day): 0.01 mg/dL | GLC ([…], time 28 day): 179.4 mg/dL | IP ([…], time 28 day): 6.2 mg/dL | K ([…], time 28 day): 3.9 meq/L | LDH ([…], time 28 day): 58 IU/L | Na ([…], time 28 day): 144 meq/L | PL ([…], time 28 day): 159.8 mg/dL | RALB ([…], time 28 day): 2.9 g/dL | TBIL ([…], time 28 day): 0.066 mg/dL | TC ([…], time 28 day): 77.2 mg/dL | TG ([…], time 28 day): 139.2 mg/dL | TP ([…], time 28 day): 6.3 g/dL | gamma-GTP ([…], time 28 day): 1.2 IU/L
